# Measured values taken from ChEMBL document CHEMBL5360641, “4'-Ethynyl-2'-deoxy-2'-β-fluoro-2-fluoroadenosine: A Highly Potent and Orally Available Clinical Candidate for the Treatment of HIV-1 Infection” (J Med Chem, 2023).
# Legend:
# [1] = test system: Human immunodeficiency virus 1; experiment: Antiviral activity against HIV1 IIIB infected in human MT4 cells assessed as inhibition of viral replication incubated for 3 to 7 days by MTT analysis; type: functional, organism-based; details: Human immunodeficiency virus 1, IIIB
# [2] = test system: Human immunodeficiency virus 1; experiment: Antiviral activity against HIV1 TC-1 infected in human PBMC assessed as inhibition of viral replication by measuring reduction in p24 antigen level incubated for 3 to 7 days by ELISA analysis; type: functional, organism-based; details: Human immunodeficiency virus 1, TC-1, PBMC
# [3] = test system: Human immunodeficiency virus 1; experiment: Antiviral activity against HIV1 WAN infected in human PBMC assessed as inhibition of viral replication by measuring reduction in p24 antigen level incubated for 3 to 7 days by ELISA analysis; type: functional, organism-based; details: Human immunodeficiency virus 1, WAN
# [4] = test system: Human immunodeficiency virus 1; experiment: Antiviral activity against HIV1 IIIB infected in human C8166 cells assessed as inhibition of viral replication by measuring reduction in p24 antigen level incubated for 3 to 7 days by ELISA analysis; type: functional, organism-based; details: Human immunodeficiency virus 1, IIIB
# [5] = test system: Human immunodeficiency virus 1; experiment: Antiviral activity against HIV1 4755-5 infected in human C8166 cells assessed as inhibition of viral replication by measuring reduction in p24 antigen level incubated for 3 to 7 days by ELISA analysis; type: functional, organism-based; details: Human immunodeficiency virus 1, 4755-5, C8166
# [6] = test system: Human immunodeficiency virus 1; experiment: Antiviral activity against HIV1 KIZ001 infected in human PBMC assessed as inhibition of viral replication by measuring reduction in p24 antigen level incubated for 3 to 7 days by ELISA analysis; type: functional, organism-based; details: Human immunodeficiency virus 1, KIZ001, PBMC
# [7] = test system: Human immunodeficiency virus 1; experiment: Antiviral activity against HIV1 VSV-G pseudotyped virus infected in human HEK293T cells assessed as inhibition of viral growth preincubated for 3 hrs followed by washout and further incubated with compound for 72 hrs by luciferase assay; type: functional, organism-based; details: Human immunodeficiency virus 1, HEK-293T
# [8] = Selectivity index, ratio of CC50 for cytotoxicity against HEK293T cells assessed as reduction in cell viability by MTT assay to EC50 for antiviral activity against HIV1 VSV-G pseudotyped virus infected in human HEK293T cells assessed as inhibition of viral growth; type: toxicity, cell-based; details: read-out: Ratio CC50/EC50
# [9] = Cytotoxicity against HEK293T cells assessed as reduction in cell viability by MTT assay; type: toxicity, cell-based, HEK-293T; details: human
# [10] = test system: Human immunodeficiency virus 1; experiment: Antiviral activity against HIV-1 harboring integrase G140S/Q148H double mutant infected in human TZM-bl cells assessed as inhibition of viral replication incubated for 3 to 7 days by luciferase assay; type: functional, organism-based; details: Human immunodeficiency virus 1, TZM-bl
# [11] = test system: Human immunodeficiency virus 1; experiment: Antiviral activity against HIV1 IIIB infected in human C8166 cells assessed as inhibition of syncytia formation incubated for 3 to 7 days by syncytia assays; type: functional, organism-based; details: Human immunodeficiency virus 1, IIIB
smiles,measurement,setting,value
Nc1ccn([C@@H]2CS[C@H](CO)O2)c(=O)n1 [LAMIVUDINE],EC50,[1],167 nM
same,EC50,[2],210 nM
same,EC50,[3],538 nM
same,EC50,[4],853 nM
same,EC50,[5],> 200000 nM
same,EC50,[6],73 nM
same,EC50,[7],170 nM
same,selectivity ratio,[8],> 588
same,CC50,[9],> 100000 nM
same,EC50,[10],138 nM
same,EC50,[11],199 nM
